Source: publication PMC6116245 (Viruses, 2018)
Values after ≈ are worked out from the molar mass of the structure shown. Values joined by “and” are separate entries in the source; they are usually repeats but may differ in a detail not shown here. Equal values may be shown once. “Also recorded” adds a separate entry of the source. Read-outs that look alike come from different tables or passages of the source.

Legend:
FCV strain F-9 = experiment: FCV plaque reduction assay in CRFK cells; conditions: for Antiviral effect against FCV in cell culture (in words): plaque reduction assay; for Therapeutic index (TI = CC50/EC50): CRFK CC50 / FCV plaque reduction EC50
in vitro = conditions: cat, Cell Viability CC50
[1] = test system: Crandell Rees Feline Kidney (CRFK) cells
[2] = biological target: FCV protease (recombinant FCV Pro-Pol) (Feline calicivirus, UniProt Q66914); experiment: Protease FRET activity assay; type: biochemical, Feline calicivirus (FCV Urbana); conditions: for Inhibitory effect against FCV protease (in words): FRET assay, up to 50 µM
Chain of FCV protease (recombinant FCV Pro-Pol) (Q66914 1072-1763): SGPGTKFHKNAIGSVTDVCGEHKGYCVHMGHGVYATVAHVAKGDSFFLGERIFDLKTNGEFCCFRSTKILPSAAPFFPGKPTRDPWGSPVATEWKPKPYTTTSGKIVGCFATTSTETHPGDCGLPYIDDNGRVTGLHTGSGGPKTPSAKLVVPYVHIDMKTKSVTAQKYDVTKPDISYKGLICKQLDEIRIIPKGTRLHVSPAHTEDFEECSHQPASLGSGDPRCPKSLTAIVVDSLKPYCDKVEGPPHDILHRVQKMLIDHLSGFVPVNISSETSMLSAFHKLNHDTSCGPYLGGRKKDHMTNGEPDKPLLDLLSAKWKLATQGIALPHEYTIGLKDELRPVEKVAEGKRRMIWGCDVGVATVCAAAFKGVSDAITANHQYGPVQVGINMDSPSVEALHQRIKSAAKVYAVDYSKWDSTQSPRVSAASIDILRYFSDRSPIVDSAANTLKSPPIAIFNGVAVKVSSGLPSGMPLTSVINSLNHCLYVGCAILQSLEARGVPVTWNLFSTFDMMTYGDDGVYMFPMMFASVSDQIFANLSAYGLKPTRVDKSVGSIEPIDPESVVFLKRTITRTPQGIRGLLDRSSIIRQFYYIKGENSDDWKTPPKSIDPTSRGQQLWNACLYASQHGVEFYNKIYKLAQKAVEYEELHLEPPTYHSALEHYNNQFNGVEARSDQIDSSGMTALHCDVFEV

FCV [3] = test system: FCV; parameters: method as in ref 29, 30 = [29]; conditions: cell-based assays; read-out: EC50 against FCV; cited from earlier work
[4] = Cytotoxicity study, CellTitre-Blue viability assay; conditions: cat
[5] = test system: Crandell Rees Feline Kidney (CRFK) cells; experiment: Cytotoxicity study, CellTitre-Blue viability assay; conditions: read-out: Cell Viability CC50; CRFK cells, 48 h, CellTitre-Blue
[6] = biological target: FCV RdRp (recombinant FCV Pro-Pol) (Feline calicivirus, UniProt Q66914); experiment: Fluorescent RdRp assay (PicoGreen, poly(C) template); conditions: for RdRp Activity [% of Mock at 10 µM]: 10 µM compound, remaining activity relative to mock; for Reduction of RdRp activity compared to mock controls: fixed concentration of 10 µM
Chain of FCV RdRp (recombinant FCV Pro-Pol) (Q66914 1072-1763): as above

[7] = test system: human norovirus protease (genogroup I and II); parameters: method as in ref 29, 52 = [29]; conditions: FRET-based assays; cited from earlier work
[8] = test system: human GI.1 norovirus replicon; parameters: method as in ref 59 = [59]; conditions: cell culture; cited from earlier work
human norovirus = test system: human norovirus; parameters: method as in ref 60 = [60]; conditions: B-cell culture system; cited from earlier work
human norovirus replicon = test system: human norovirus replicon; parameters: method as in ref 47, 57 = [47]; conditions: cell culture-based assays; cited from earlier work
[9] = test system: FCV RNA in infected CRFK cells; experiment: FCV genome reduction assay by RT-qPCR; type: cell-based, Feline calicivirus; conditions: 24 h, MOI 0.0005
murine norovirus [10] = test system: murine norovirus; parameters: method as in ref 47, 57 = [47]; conditions: cell culture-based assays; cited from earlier work
FCV [11] = test system: FCV; parameters: method as in ref 25 = [25]; conditions: in vitro assays; cited from earlier work
HCV infectious virus = conditions: read-out: EC50 infectious HCV in cell cultures; cited from earlier work
chikungunya replicon = test system: chikungunya replicon; parameters: method as in ref 75 = [75]; conditions: cited from earlier work
[12] = in vivo; cited from earlier work
FCV [13] = test system: FCV; parameters: method as in ref 26 = [26]; conditions: read-out: EC50 against FCV in vitro; cited from earlier work
rotavirus = test system: rotavirus; parameters: method as in ref 54, 63 = [54]; conditions: cell culture; cited from earlier work
[14] = in vivo; cited from earlier work; remark: listed apart in the source
murine norovirus [15] = test system: murine norovirus; parameters: method as in ref 64 = [64]; conditions: cited from earlier work
canine coronavirus = test system: canine coronavirus; parameters: method as in ref 54, 63 = [54]; conditions: cell culture; cited from earlier work
GI norovirus replicon = test system: GI norovirus replicon; parameters: method as in ref 64 = [64]; conditions: cleared the replicon from the host cells; cited from earlier work
adenovirus = test system: adenovirus; parameters: method as in ref 54, 63 = [54]; conditions: cell culture; cited from earlier work
murine norovirus RdRp = test system: murine norovirus RdRp; parameters: method as in ref 59 = [59]; conditions: cited from earlier work
human norovirus RdRp = test system: human norovirus RdRp; parameters: method as in ref 59 = [59]; conditions: cited from earlier work
[16] = Feline calicivirus, CRFK, 24 h, read-out: Plaque Reduction Assay EC50, FCV in CRFK cells, 24 h
[17] = FRET, 50 µM substrate, read-out: In vitro Protease IC50
[18] = read-out: Plaque Reduction Assay EC50, FCV in CRFK cells, 24 h
[19] = Feline calicivirus, CRFK, 24 h, read-out: Inhibition of plaque formation
[20] = Feline calicivirus, CRFK, 24 h, read-out: Plaque Reduction Assay EC50
[21] = Crandell Rees Feline Kidney (CRFK) cells, Cell Viability CC50, CRFK cells, 48 h, CellTitre-Blue

Structure (SMILES): CC(=O)OCC(CCn1cnc2cnc(N)nc21)COC(C)=O [Famciclovir]
- EC50 (FCV strain F-9; [16]): > 50 µM
- inhibition at 50 µM (FCV strain F-9; Feline calicivirus, CRFK, read-out: Inhibition of plaque formation): 10%
- Antiviral effect against FCV in cell culture (in words) (FCV strain F-9): no antiviral effect observed
- CC50 at 48 h (in vitro): > 100 µM

Structure (SMILES): CC(C)C[C@H](NC(=O)OCc1ccccc1)C(=O)N[C@@H](CC1CCNC1=O)C(O)S(=O)(=O)O (some centres unmarked) [GC376]
- CC50 [1]: > 100 µM
- IC50 [2, 17]: 18 µM and 18.7 µM
- EC50 (FCV strain F-9; [18]): > 10 µM
- EC50 (FCV [3]): 35 µM and 35.2 µM

Structure (SMILES): CC(C)OC(=O)[C@H](C)N[P@](=O)(OC[C@H]1O[C@@H](n2ccc(=O)[nH]c2=O)[C@](C)(F)[C@@H]1O)Oc1ccccc1 [Sofosbuvir]
- inhibition at 10 µM (FCV strain F-9; [19]): < 10%
- EC50 (FCV strain F-9; [20]): > 10 µM
- CC50 at 48 h [4]: > 100 µM

Structure (SMILES): COc1ccc2c(c1)[C@@H]1C[C@]1(C(=O)N1[C@@H]3CC[C@H]1CN(C)C3)Cn1c-2c(C2CCCCC2)c2ccc(C(=O)NS(=O)(=O)N(C)C)cc21 [Beclabuvir]
- CC50 [5]: 27.5 µM
- CC50 at 48 h [4, 21]: < 30 µM
- RdRp Activity [% of Mock at 10 µM] [6]: 92.2%
- Reduction of RdRp activity compared to mock controls [6]: ≤ 10%

Structure (SMILES): CCOC(=O)/C=C/[C@H](C[C@@H]1CCNC1=O)NC(=O)[C@@H](CC(=O)[C@@H](NC(=O)c1cc(C)on1)C(C)C)Cc1ccc(F)cc1 [Rupintrivir, rupintrivir]
- IC50 [2]: > 50 µM
- Inhibitory effect against FCV protease (in words) [2]: no inhibitory effect
- EC50 (FCV [3]): > 50 µM
- CC50 at 48 h [4, 21]: > 100 µM
- IC50 [7]: < 1 µM

Structure (SMILES): C[C@@]1(O)[C@H](O)[C@@H](CO)O[C@H]1n1ccc(N)nc1=O [2CMC, 2′-C-methylcytidine]
- Therapeutic index (TI = CC50/EC50) (FCV strain F-9): > 40
- EC50 (FCV strain F-9; [16]): 2.5 µM
- EC50 (FCV strain F-9; [18]): 2.6 µM
- EC50 [8]: 8.2 µM
- EC50 (human norovirus): 0.3 µM
- EC50 (human norovirus replicon): ~18 µM
- Reduction of FCV RNA levels compared to mock-treated cells ([9]; 10 µM): 95%
- CC50 at 48 h [4, 21]: > 100 µM
- EC50 (murine norovirus [10]): ~2 µM

Structure (SMILES): COC(=O)/C=C/c1cccc(N(Cc2ccc(-c3ccc(N(C)C)cc3)cc2)C(=O)C2CCCCC2)c1 [fexaramine]
- Blocking of FCV entry (in words) (FCV [11]): effective at blocking FCV entry

Structure (SMILES): O=c1c(O)c(-c2ccc(O)c(O)c2)oc2cc(O)c(O)c(O)c12 [Quercetagetin, quercetagetin]
- inhibition at 10 µM (FCV strain F-9; [19]): < 10%
- EC50 (FCV strain F-9; [20]): > 10 µM
- Antiviral effect against FCV in cell culture (in words) (FCV strain F-9): did not display antivirals effects; also recorded: did not inhibit FCV plaque formation
- EC50 (HCV infectious virus): 40.2 µM
- IC50 [6]: 2.8 µM
- RdRp Activity [% of Mock at 10 µM] [6]: 11.7%
- Reduction of RdRp activity compared to mock controls [6]: 88.3%
- IC50 (chikungunya replicon): 43.5 µM

Structure (SMILES): CC(C)[C@H](N)C(=O)O[C@@H]1[C@@H](CO)O[C@@H](n2ccc(N)nc2=O)[C@]1(C)O [Valopicitabine]
- Adverse events [12]: dose-related gastrointestinal adverse events

Structure (SMILES): O=C(O)c1ccc2c(c1)nc(-c1ccc(OCc3cc(N4CCCC4=O)ccc3-c3ccc(Cl)cc3)cc1F)n2C1CCCCC1 [JTK-109]
- RdRp Activity [% of Mock at 10 µM] [6]: 89.8%
- Reduction of RdRp activity compared to mock controls [6]: ≤ 10%

Structure (SMILES): Cc1nc(N=Nc2cc(S(=O)(=O)O)c3cc([N+](=O)[O-])cc(S(=O)(=O)O)c3c2)c(COP(=O)(O)O)c(C=O)c1O [PPNDS]
- Inhibition of plaque formation (FCV strain F-9; 10 µM, 24 h): < 10%
- Antiviral effect against FCV in cell culture (in words) (FCV strain F-9): did not display antivirals effects
- EC50 (FCV strain F-9; [18]): > 10 µM
- CC50 [5]: > 100 µM
- RdRp Activity [% of Mock at 10 µM] [6]: 7.4%
- Reduction of RdRp activity compared to mock controls [6]: 92.6%
- IC50 ([6]; read-out: RdRp Activity IC50, dose-response 0.1-100 µM): 2.7 µM

Structure (SMILES): OC(c1cc(C(F)(F)F)nc2c(C(F)(F)F)cccc12)C1CCCCN1 (centres unmarked) [Mefloquine]
- EC50 (FCV [13]): 6.03 µM

Structure (SMILES): CC(C)C[C@H](NC(=O)[C@@H](NC(=O)N[C@@H](Cc1ccccc1)C(=O)O)[C@@H]1CCN=C(N)N1)C(=O)N[C@H](C=O)Cc1ccccc1 [Chymostatin, chymostatin]
- Inhibitory effect against FCV protease (in words) [2]: no inhibitory effect
- IC50 [2, 17]: > 50 µM

Structure (SMILES): COc1ccc2c(c1)C=C1Cn3c-2c(C2CCCCC2)c2ccc(cc23)C(=O)NS(=O)(=O)N(C)CCOCCN(C)C1=O [TMC-647055]
- CC50 [5]: 27.1 µM
- CC50 at 48 h [4, 21]: < 30 µM
- RdRp Activity [% of Mock at 10 µM] [6]: 93.5%
- Reduction of RdRp activity compared to mock controls [6]: ≤ 10%

Structure (SMILES): CC(C)C[C@H](NC(=O)OCc1ccccc1)C(=O)N[C@@H](C[C@@H]1CCNC1=O)C(O)S(=O)(=O)[O-].[Na+] (some centres unmarked) [GC376]
- Inhibition of FCV protease ([2]; 50 µM): 75%
- Antiviral effect against FCV in cell culture (in words) (FCV strain F-9): did not display antivirals effects

Structure (SMILES): CC(=O)Oc1ccccc1C(=O)Nc1ncc([N+](=O)[O-])s1 [Nitazoxanide, nitazoxanide]
- IC50 [2]: > 10 µM
- EC50 rotavirus replication (rotavirus): 0.5 µg/mL (≈ 1.63 µM)
- Therapeutic index (TI = CC50/EC50) (FCV strain F-9): 21.1
- EC50 (FCV strain F-9; [16]): 0.5 µM
- EC50 (FCV strain F-9; Feline calicivirus, CRFK, read-out: Plaque reduction EC50, FCV in CRFK cells, same value given in µg/mL): 0.2 µg/mL
- EC50 (FCV strain F-9; [18]): 0.6 µM
- Side-effects observed in cats [14]: diarrhea and vomiting
- Activity against murine norovirus (in words) (murine norovirus [15]): ineffective
- EC50 canine coronavirus replication (canine coronavirus): 1 µg/mL (≈ 3.25 µM)
- Concentration reported to inhibit GI norovirus replicon replication (GI norovirus replicon): 5 µg/mL
- Reduction of FCV RNA levels compared to mock-treated cells ([9]; 2.5 µM): 80%
- CC50 at 48 h [4, 21]: 12.7 µM
- EC50 adenovirus replication (adenovirus): 0.2 µg/mL (≈ 0.651 µM)
- IC50 [6]: > 10 µM

Structure (SMILES): NC(=O)c1nc(F)c[nH]c1=O [T-705, Favipiravir]
- inhibition at 10 µM (FCV strain F-9; [19]): < 10%
- EC50 (FCV strain F-9; [16]): > 10 µM
- CC50 at 48 h [4, 21]: > 100 µM

Structure (SMILES): C[C@@]1(O)[C@H](O)[C@@H](COP(=O)(O)OP(=O)(O)OP(=O)(O)O)O[C@H]1n1ccc(N)nc1=O [tri-phosphorylated 2CMC]
- IC50 (murine norovirus RdRp): 1.4 µM
- IC50 (human norovirus RdRp): 2.4 µM

Structure (SMILES): CC(C)C[C@H](NC(=O)[C@H](Cc1cccc2ccccc12)NC(=O)OCc1ccccc1)C(=O)N[C@H](C=O)C[C@@H]1CCNC1=O [NPI52]
- EC50 (FCV [3]): 0.02 µM
